From patent publication US20260364184A1, “COMPOUND BASED ON OXOISOINDOLINYL-SUBSTITUTED TETRAHYDROPYRIMIDINE-DIONE AND USE THEREOF” (GLUETACS THERAPEUTICS (SHANGHAI) CO., LTD., priority 2023, published 2026) come the findings set out here.

Format in all cases: cell-based
One assay addresses T1, BRM (Homo sapiens, UniProt P51531).
T1 construct: expression of target proteins in cells; endogenous in cells
The assay is described as follows: Western blot degradation of BRM (SMARCA2). The note with it: Molt-4 Cell; 24 hours. On the procedure: (§1) Conventional Western blot assay was performed to evaluate the effects of the compounds of the present disclosure on the expression of target proteins in cells.
(§2) (1) Cell Seeding and Protein Harvesting: The selected cells were processed according to the cell seeding procedure and protein harvesting procedure in Table II-2.
(§3) (2) To the collected supernatant, 5×SDS sample loading buffer was added, followed by denaturation at 95 °C for 5 minutes. The denatured samples were then separated by SDS-PAGE electrophoresis on a polyacrylamide gel. Proteins were transferred to a nitrocellulose membrane (0.45 μm NC membrane), blocked with blocking buffer at room temperature for 1 hour, and subjected to antibody incubation and development procedures according to the antibody manufacturer's instructions (Cell Signaling Technology).
(§4) Half-Maximal Degradation Concentration value (the drug concentration required for degrading proteins by 50%, abbreviated as DC50) reads method: comparing the grayscale values of Western blot bands from drug-treated samples with those from blank DMSO-treated controls, and identifying the drug concentration range at which the grayscale value is half that of the DMSO-treated control bands.
(§5) DC50 values can be calculated using ImageJ software to measure grayscale values of Western blot bands from drug-treated samples. The concentration-response curve is fitted to estimate the drug concentration corresponding to half the grayscale value.
(§6) Target protein remaining (%) refers to the percentage of target protein remaining in cells after treatment with protein degrader compounds.
(§7) Calculation method for target protein remaining (%): Use ImageJ software to measure grayscale values of Western blot bands from drug (protein degrader)-treated samples. The grayscale value of drug-treated bands is divided by that of internal control protein bands, and the resulting quotient is normalized to obtain the relative percentage of remaining target protein after protein degrader treatment.
(§8) Target protein degradation rate (%)=1−target protein remaining (%).
For orientation: A western blot detects proteins with antibodies after separation by electrophoresis.

Another assay addresses T2, BRG1 (Homo sapiens, UniProt P51532).
T2 construct: expression of target proteins in cells; endogenous in cells
Put plainly: Western blot degradation of BRG1 (SMARCA4). Conditions: Molt-4 Cell; 24 hours. On the procedure:
as §1, §2, §3, §4, §5, §6, §7, §8

In a further assay the target is T3, C-ABL (Homo sapiens, UniProt P00519).
T3 construct: K562 also holds p210 BCR-ABL (BCR P11274 fused to ABL1)
T3 sequence (P00519 whole entry, the tested form may be a part): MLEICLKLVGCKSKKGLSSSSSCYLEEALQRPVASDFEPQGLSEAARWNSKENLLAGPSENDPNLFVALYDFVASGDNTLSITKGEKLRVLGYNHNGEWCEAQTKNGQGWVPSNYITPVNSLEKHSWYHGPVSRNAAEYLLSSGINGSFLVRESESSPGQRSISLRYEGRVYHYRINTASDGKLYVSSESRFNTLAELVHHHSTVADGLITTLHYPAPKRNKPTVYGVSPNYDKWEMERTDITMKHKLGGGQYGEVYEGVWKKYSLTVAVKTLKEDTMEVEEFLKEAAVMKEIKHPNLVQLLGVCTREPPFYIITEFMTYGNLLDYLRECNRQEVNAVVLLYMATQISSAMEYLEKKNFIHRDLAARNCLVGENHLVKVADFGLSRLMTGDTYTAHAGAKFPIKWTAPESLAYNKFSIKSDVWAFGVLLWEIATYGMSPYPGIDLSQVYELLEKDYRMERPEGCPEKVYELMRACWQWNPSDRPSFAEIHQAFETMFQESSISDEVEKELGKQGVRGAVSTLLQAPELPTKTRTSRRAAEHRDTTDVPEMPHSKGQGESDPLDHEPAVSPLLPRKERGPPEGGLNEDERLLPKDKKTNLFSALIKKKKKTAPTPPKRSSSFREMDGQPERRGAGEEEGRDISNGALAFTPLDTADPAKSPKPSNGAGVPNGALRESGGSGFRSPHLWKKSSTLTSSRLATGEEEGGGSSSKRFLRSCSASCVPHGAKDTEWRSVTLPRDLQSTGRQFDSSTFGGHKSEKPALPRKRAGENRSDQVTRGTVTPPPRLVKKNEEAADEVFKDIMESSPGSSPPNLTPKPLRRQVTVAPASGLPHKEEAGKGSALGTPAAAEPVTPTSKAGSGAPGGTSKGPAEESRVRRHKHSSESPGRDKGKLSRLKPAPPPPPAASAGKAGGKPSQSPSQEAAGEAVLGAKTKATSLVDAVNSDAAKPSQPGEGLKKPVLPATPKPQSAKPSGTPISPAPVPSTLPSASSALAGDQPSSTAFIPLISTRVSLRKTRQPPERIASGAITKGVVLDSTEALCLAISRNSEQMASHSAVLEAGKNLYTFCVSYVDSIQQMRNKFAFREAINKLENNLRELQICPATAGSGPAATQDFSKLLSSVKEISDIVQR
T3 sequence (Q96SW2 whole entry partner, the tested form may be a part): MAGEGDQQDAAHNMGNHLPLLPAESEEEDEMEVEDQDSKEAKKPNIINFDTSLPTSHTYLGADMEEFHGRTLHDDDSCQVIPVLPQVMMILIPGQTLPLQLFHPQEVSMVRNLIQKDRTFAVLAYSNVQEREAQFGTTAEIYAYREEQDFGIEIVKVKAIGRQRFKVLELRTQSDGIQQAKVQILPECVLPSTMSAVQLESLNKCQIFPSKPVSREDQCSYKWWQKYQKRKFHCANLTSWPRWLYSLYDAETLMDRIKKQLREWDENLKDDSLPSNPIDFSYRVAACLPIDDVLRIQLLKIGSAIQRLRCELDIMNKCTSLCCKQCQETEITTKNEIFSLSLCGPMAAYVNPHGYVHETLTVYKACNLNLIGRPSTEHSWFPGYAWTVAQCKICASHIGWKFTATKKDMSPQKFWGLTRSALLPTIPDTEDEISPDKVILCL
The assay is described as follows: Western blot degradation of C-ABL. The note with it: K562 Cell; 24 hours. The method, then: as §1, §2, §3, §4, §5, §6, §7, §8

Assay [1] has as its system Human myeloid monocytic leukemia cell line (MV-4-11). Put plainly: Inhibition of MV-4-11 cell proliferation (CellTiter luminescent viability). Conditions: Homo sapiens, MV4-11, Table IL2, BCR-ABL inhibitor-based, 96 hours. In a few lines: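 IC50 is fitted from luminescent viability (CellTiter-Meiluncell) curves. Nine-point, 5-fold dilution series (top stock 2000 μM) are added at 0.5 μL per 100 μL medium to cells plated the day before, with growth at 37 °C and 5% CO2.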

T2 sequence (P51532 whole entry): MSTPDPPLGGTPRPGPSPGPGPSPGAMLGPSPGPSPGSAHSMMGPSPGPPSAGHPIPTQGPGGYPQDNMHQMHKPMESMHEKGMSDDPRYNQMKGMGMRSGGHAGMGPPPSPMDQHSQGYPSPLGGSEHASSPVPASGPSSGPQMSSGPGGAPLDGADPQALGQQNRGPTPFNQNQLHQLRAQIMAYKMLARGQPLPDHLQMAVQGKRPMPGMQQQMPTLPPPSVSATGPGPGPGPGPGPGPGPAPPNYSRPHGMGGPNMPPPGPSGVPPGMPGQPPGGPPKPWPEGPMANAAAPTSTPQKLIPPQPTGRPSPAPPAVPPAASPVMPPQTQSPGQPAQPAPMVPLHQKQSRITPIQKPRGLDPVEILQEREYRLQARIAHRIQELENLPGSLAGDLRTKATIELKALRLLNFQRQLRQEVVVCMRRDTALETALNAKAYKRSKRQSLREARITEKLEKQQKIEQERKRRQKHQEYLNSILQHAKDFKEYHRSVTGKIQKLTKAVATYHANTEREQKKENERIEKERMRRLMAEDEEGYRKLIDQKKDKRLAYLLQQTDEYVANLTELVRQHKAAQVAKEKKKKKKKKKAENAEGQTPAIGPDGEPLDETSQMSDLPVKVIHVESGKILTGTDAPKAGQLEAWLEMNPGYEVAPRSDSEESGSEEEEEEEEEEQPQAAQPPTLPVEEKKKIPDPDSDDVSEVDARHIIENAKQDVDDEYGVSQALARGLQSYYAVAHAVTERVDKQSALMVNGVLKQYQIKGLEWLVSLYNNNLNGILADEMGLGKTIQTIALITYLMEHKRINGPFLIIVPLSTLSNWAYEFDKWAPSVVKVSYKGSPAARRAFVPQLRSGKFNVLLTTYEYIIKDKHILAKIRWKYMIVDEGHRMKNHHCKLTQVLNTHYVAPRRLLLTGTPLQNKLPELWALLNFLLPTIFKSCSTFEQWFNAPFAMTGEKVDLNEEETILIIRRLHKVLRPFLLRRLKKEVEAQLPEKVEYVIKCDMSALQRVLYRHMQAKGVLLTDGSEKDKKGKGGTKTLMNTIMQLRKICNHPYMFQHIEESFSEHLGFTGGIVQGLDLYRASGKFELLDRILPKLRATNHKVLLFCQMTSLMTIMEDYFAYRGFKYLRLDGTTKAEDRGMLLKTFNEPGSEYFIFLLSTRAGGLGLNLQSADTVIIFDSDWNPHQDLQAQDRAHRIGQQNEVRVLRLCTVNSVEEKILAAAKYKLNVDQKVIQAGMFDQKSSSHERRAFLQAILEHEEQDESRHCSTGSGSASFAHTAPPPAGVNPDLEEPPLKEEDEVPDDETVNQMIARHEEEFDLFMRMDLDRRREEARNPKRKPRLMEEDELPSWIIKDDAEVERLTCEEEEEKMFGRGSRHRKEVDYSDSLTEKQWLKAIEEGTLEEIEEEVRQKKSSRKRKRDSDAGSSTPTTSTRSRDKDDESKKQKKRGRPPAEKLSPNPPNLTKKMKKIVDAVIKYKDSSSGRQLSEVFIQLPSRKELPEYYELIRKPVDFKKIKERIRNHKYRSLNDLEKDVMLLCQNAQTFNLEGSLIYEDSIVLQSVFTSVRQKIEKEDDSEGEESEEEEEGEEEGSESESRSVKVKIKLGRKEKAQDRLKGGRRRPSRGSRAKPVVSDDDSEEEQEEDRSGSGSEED
T1 sequence (P51531 whole entry): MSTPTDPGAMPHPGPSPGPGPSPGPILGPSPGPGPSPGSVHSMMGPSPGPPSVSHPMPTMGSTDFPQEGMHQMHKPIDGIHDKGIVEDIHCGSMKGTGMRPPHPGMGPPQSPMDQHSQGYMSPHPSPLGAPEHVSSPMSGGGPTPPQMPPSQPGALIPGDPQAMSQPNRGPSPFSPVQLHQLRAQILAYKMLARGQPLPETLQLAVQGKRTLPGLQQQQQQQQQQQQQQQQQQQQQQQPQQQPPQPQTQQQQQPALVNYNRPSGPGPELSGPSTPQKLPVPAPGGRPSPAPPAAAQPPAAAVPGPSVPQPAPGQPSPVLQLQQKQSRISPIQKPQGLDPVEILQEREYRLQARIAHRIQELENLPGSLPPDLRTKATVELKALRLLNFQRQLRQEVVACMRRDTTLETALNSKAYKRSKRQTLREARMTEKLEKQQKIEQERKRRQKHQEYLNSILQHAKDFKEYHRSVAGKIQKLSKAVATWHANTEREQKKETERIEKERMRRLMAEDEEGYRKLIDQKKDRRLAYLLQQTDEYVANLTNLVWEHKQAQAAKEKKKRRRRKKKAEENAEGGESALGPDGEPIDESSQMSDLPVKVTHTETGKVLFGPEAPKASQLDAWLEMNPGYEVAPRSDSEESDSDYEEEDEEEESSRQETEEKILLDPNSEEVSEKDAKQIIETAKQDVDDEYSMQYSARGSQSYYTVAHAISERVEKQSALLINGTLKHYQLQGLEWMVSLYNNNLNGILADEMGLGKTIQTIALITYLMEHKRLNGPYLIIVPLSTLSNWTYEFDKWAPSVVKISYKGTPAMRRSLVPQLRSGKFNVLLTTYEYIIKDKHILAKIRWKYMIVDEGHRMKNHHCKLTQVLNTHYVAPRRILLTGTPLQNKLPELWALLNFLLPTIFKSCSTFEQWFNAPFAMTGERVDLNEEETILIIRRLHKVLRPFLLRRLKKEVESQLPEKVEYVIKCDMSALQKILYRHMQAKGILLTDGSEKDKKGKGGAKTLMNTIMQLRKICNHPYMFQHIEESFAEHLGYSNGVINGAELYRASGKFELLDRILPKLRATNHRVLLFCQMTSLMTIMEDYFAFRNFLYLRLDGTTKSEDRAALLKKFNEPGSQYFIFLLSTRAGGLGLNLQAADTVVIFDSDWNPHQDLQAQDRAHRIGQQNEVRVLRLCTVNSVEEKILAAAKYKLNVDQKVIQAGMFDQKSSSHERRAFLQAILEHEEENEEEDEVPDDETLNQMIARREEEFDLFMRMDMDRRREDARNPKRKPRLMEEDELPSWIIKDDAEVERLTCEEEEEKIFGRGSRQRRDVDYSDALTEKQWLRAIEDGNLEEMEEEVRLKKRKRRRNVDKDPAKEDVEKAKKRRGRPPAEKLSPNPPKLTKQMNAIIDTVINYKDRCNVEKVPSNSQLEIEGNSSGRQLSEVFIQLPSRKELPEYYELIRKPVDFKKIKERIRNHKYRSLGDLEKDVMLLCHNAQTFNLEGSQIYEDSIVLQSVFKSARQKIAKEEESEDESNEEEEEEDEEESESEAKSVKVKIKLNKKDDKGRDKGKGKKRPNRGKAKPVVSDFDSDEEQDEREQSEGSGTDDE

Consider `Nc1nnc(-c2ccccc2O)cc1N1CCN(Cc2ccc3c(c2)CN(N2CCC(=O)NC2=O)C3=O)CC1` [GT-04952, 1-(5-((4-(3-amino-6-(2-hydroxyphenyl)pyridazin-4-yl)piperazin-1-yl)methyl)-1-oxoisoindolin-2-yl)dihydropyrimidine-2,4 (1H,3H)-dione], for which the “Degradation of substrate protein BRM (substrate protein remaining %)” value at BRM is listed as “A (0%≤substrate protein remaining %≤80%)”. The “Degradation of substrate protein BRG1 (substrate protein remaining %)” value on BRG1 is given as “A (0%≤substrate protein remaining %≤80%)”. `Nc1nnc(-c2ccccc2O)cc1N1CCN(CC2CCN(c3ccc4c(c3)C(=O)N(N3CCC(=O)NC3=O)C4=O)CC2)CC1` [GT-04954, 5-(4-((4-(3-amino-6-(2-hydroxyphenyl)pyridazin-4-yl)piperazin-1-yl)methyl)piperidin-1-yl)-2-(2,4-dioxotetrahydropyrimidin-1(2H)-yl)isoindoline-1,3-dione]: at BRM, the “Degradation of substrate protein BRM (substrate protein remaining %)” value was “A (0%≤substrate protein remaining %≤80%)”. The “Degradation of substrate protein BRG1 (substrate protein remaining %)” value at BRG1 is listed as “A (0%≤substrate protein remaining %≤80%)”. For `Nc1nnc(-c2cc(F)ccc2O)cc1N1CCN(Cc2ccc3c(c2)CN(N2CCC(=O)NC2=O)C3=O)CC1` [GT-05061, 1-(5-((4-(3-amino-6-(5-fluoro-2-hydroxyphenyl)pyridazin-4-yl)piperazin-1-yl)methyl)-1-oxoisoindolin-2-yl)dihydropyrimidine-2,4 (1H,3H)-dione], the “Degradation of substrate protein BRM (substrate protein remaining %)” value on BRM is reported as “A (0%≤substrate protein remaining %≤80%)”. In addition, the “Degradation of substrate protein BRG1 (substrate protein remaining %)” value on BRG1 is on record as “B (80%<substrate protein remaining %≤100%)”. Turning to `Nc1nnc(-c2cc(F)ccc2O)cc1N1CCN(CC2CCN(c3ccc4c(c3)C(=O)N(N3CCC(=O)NC3=O)C4=O)CC2)CC1` [GT-05068, 5-(4-((4-(3-amino-6-(5-fluoro-2-hydroxyphenyl)pyridazin-4-yl)piperazin-1-yl)methyl)piperidin-1-yl)-2-(2,4-dioxotetrahydropyrimidin-1(2H)-yl)isoindoline-1,3-dione], the “Degradation of substrate protein BRM (substrate protein remaining %)” value at BRM is reported as “A (0%≤substrate protein remaining %≤80%)”. Further, the “Degradation of substrate protein BRG1 (substrate protein remaining %)” value on BRG1 is recorded as “B (80%<substrate protein remaining %≤100%)”. As to `Nc1nnc(-c2cc(F)ccc2O)cc1N1CCN(CC2CCN(c3cccc4c3C(=O)N(N3CCC(=O)NC3=O)C4=O)CC2)CC1` [GT-05069, 4-(4-((4-(3-amino-6-(5-fluoro-2-hydroxyphenyl)pyridazin-4-yl)piperazin-1-yl)methyl)piperidin-1-yl)-2-(2,4-dioxotetrahydropyrimidin-1(2H)-yl)isoindoline-1,3-dione], on BRM, the “Degradation of substrate protein BRM (substrate protein remaining %)” value is “A (0%≤substrate protein remaining %≤80%)”. Besides, on BRG1, the “Degradation of substrate protein BRG1 (substrate protein remaining %)” value is on record as “A (0%≤substrate protein remaining %≤80%)”. `Nc1nnc(-c2ccccc2O)cc1N1CCN(CC2CCN(c3cccc4c3C(=O)N(N3CCC(=O)NC3=O)C4=O)CC2)CC1` [GT-05070, 4-(4-((4-(3-amino-6-(2-hydroxyphenyl)pyridazin-4-yl)piperazin-1-yl)methyl)piperidin-1-yl)-2-(2,4-dioxotetrahydropyrimidin-1(2H)-yl)isoindoline-1,3-dione]: the “Degradation of substrate protein BRM (substrate protein remaining %)” value at BRM is on record as “A (0%≤substrate protein remaining %≤80%)”. Besides, the “Degradation of substrate protein BRG1 (substrate protein remaining %)” value at BRG1 was “B (80%<substrate protein remaining %≤100%)”. In the same order, the values of `Nc1nnc(-c2ccccc2O)cc1N1CCN(Cc2ccc3c(c2)C(=O)N(N2CCC(=O)NC2=O)C3=O)CC1` [GT-05071, 5-((4-(3-amino-6-(2-hydroxyphenyl)pyridazin-4-yl)piperazin-1-yl)methyl)-2-(2,4-dioxotetrahydropyrimidin-1(2H)-yl)isoindoline-1,3-dione] are “A (0%≤substrate protein remaining %≤80%)” and “B (80%<substrate protein remaining %≤100%)”. In the case of `Nc1nnc(-c2cc(F)ccc2O)cc1N1CCN(Cc2ccc3c(c2)C(=O)N(N2CCC(=O)NC2=O)C3=O)CC1` [GT-05072, 5-((4-(3-amino-6-(5-fluoro-2-hydroxyphenyl)pyridazin-4-yl)piperazin-1-yl)methyl)-2-(2,4-dioxotetrahydropyrimidin-1(2H)-yl)isoindoline-1,3-dione], the “Degradation of substrate protein BRM (substrate protein remaining %)” value on BRM is “A (0%≤substrate protein remaining %≤80%)”. In addition, the “Degradation of substrate protein BRG1 (substrate protein remaining %)” value at BRG1 is given as “B (80%<substrate protein remaining %≤100%)”. Consider `Nc1nnc(-c2cc(F)ccc2O)cc1N1CCN(CC2CCN(C3CCN(c4ccc5c(c4)C(=O)N(N4CCC(=O)NC4=O)C5=O)CC3)CC2)CC1` [GT-05094, 5-(4-((4-(3-amino-6-(5-fluoro-2-hydroxyphenyl)pyridazin-4-yl)piperazin-1-yl)methyl)-[1,4′-bipiperidin]-1′-yl)-2-(2,4-dioxotetrahydropyrimidin-1(2H)-yl)isoindoline-1,3-dione], for which the “Degradation of substrate protein BRM (substrate protein remaining %)” value at BRM is reported as “A (0%≤substrate protein remaining %≤80%)”. In addition, at BRG1, the “Degradation of substrate protein BRG1 (substrate protein remaining %)” value is “B (80%<substrate protein remaining %≤100%)”.

Regarding `Nc1nnc(-c2ccccc2O)cc1N1CCN(CC2CCN(C3CCN(c4ccc5c(c4)C(=O)N(N4CCC(=O)NC4=O)C5=O)CC3)CC2)CC1` [GT-05095, 5-(4-((4-(3-amino-6-(2-hydroxyphenyl)pyridazin-4-yl)piperazin-1-yl)methyl)-[1,4′-bipiperidin]-1′-yl)-2-(2,4-dioxotetrahydropyrimidin-1(2H)-yl)isoindoline-1,3-dione], the “Degradation of substrate protein BRM (substrate protein remaining %)” value at BRM is “A (0%≤substrate protein remaining %≤80%)”. The “Degradation of substrate protein BRG1 (substrate protein remaining %)” value on BRG1 is “B (80%<substrate protein remaining %≤100%)”. Consider `Cc1ccc(C(=O)Nc2ccc(N3CCN(Cc4ccc5c(c4)C(=O)N(N4CCC(=O)NC4=O)C5=O)CC3)c(C(F)(F)F)c2)cc1C#Cc1cnc2cccnn12` [GT-08219, N-(4-(4-((2-(2,4-dioxotetrahydropyrimidin-1(2H)-yl)-1,3-dioxoisoindolin-5-yl)methyl)piperazin-1-yl)-3-(trifluoromethyl)phenyl)-3-(imidazo[1,2-b]pyridazin-3-ylethynyl)-4-methylbenzamide], for which the “Degradation of substrate protein C-ABL; BCR-ABL (substrate protein remaining %)” value at C-ABL is recorded as “A (0%≤substrate protein remaining %≤80%)”. The term inhibition denotes the change of the read-out against control, counted positive when it falls. As for `Cc1ccc(C(=O)Nc2ccc(N3CCC(N(C)Cc4ccc5c(c4)CN(N4CCC(=O)NC4=O)C5=O)CC3)c(C(F)(F)F)c2)cc1C#Cc1cnc2cccnn12` [GT-08220, N-(4-(4-(((2-(2,4-dioxotetrahydropyrimidin-1(2H)-yl)-1-oxoisoindolin-5-yl)methyl)(methyl)amino)piperidin-1-yl)-3-(trifluoromethyl)phenyl)-3-(imidazo[1,2-b]pyridazin-3-ylethynyl)-4-methylbenzamide], in assay [1] (MV-4-11, 10 nM, read-out: Inhibition Rate at 10 nM (%)), the inhibition at 0.01 µM was -5 to 0%. Further, the inhibition at 0.5 µM in assay [1] (MV-4-11, 500 nM, read-out: Inhibition Rate at 500 nM (%)) fell in the range of 80 to 100%. In addition, on C-ABL, the “Degradation of substrate protein C-ABL; BCR-ABL (substrate protein remaining %)” value is recorded as “A (0%≤substrate protein remaining %≤80%)”. Consider `O=C1CCN(N2C(=O)c3cccc(N4CCC(CN5CCN(c6ncc(C(=O)Nc7ccc(OC(F)(F)Cl)cc7)cc6-c6cc[nH]n6)CC5)CC4)c3C2=O)C(=O)N1` [GT-08357, N-(4-(chlorodifluoromethoxy)phenyl)-6-(4-((1-(2-(2,4-dioxotetrahydropyrimidin-1(2H)-yl)-1,3-dioxoisoindolin-4-yl)piperidin-4-yl)methyl)piperazin-1-yl)-5-(1H-pyrazol-3-yl)nicotinamide], for which, on C-ABL, the “Degradation of substrate protein C-ABL; BCR-ABL (substrate protein remaining %)” value is given as “A (0%≤substrate protein remaining %≤80%)”. Take `O=C1CCN(N2C(=O)c3ccc(N4CCC(CN5CCC(N6CCN(c7ncc(C(=O)Nc8ccc(OC(F)(F)Cl)cc8)cc7-c7cc[nH]n7)CC6)CC5)CC4)cc3C2=O)C(=O)N1` [GT-08358, N-(4-(chlorodifluoromethoxy)phenyl)-6-(4-(1-((1-(2-(2,4-dioxotetrahydropyrimidin-1(2H)-yl)-1,3-dioxoisoindolin-5-yl)piperidin-4-yl)methyl)piperidin-4-yl)piperazin-1-yl)-5-(1H-pyrazol-3-yl)nicotinamide]: the “Degradation of substrate protein C-ABL; BCR-ABL (substrate protein remaining %)” value on C-ABL was “A (0%≤substrate protein remaining %≤80%)”.
